In patent publication US20240173440A1, “HIGH PURITY COPPER RADIOPHARMACEUTICAL COMPOSITIONS AND DIAGNOSTIC AND THERAPEUTIC USES THEREOF” (Nuclidium AG, priority 2022, published 2024):

Legend:
hFAP = hFAP (Homo sapiens (Human), UniProt Q12884); assay: Saturation binding on isolated HEK-293.hFAP cell membranes; design: Bmax: unit not given here; conditions: 37° C.
Description: The cells were homogenized using Ultra-Turrax, and the homogenized suspension was centrifuged at 500×g for 10 min at 4° C. The supernatant was collected in centrifuge tubes (Beckman Coulter Inc., Brea, CA, USA). This procedure was then repeated 5 times. The collected supernatant was centrifuged in an ultra-centrifuge (Beckman) at 4° C. for 55 min at 49,000×g. Then, the pellet was re-suspended in 10 mM ice-cold HEPES buffer (pH 7.5), aliquoted, and stored at −80° C. The protein concentration of those membrane suspensions was determined by the Bradford method, BSA as the standard.
Each assay tube contained 170 μL of binding buffer (20 mM HEPES, pH 7.4, containing 4 mM μgCl2, 0.2% BSA, 20 μg/L bacitracin, 20 μg/L PMSF and 200,000 KIU/L aprotinin). The incubation was initiated by adding 30 μL of radioligand solution at 10 times the final concentration and 100 μL of cell membrane suspension to yield 10 μg of protein per well. For the determination of the non-specific binding, 140 μL of the above binding buffer was added along with 30 μL of FAPI-46 to obtain (0.1 mM). Bound fractions were plotted versus the corresponding radioligand concentration at equilibrium. The dissociation constant (KD) and maximal binding capacity (Bmax) values were calculated using GraphPad Software Inc., Prism 7, San Diego, CA, USA (Table 33 and FIG. 21).

[1] = system: HT-1080.hFAP and HT-1080.wt xenografts; assay: Quantitative biodistribution in HT-1080.hFAP and HT-1080.wt xenografted mice; format: in vivo; conditions: for Biodistribution HT-1080.wt: FAP-negative tumor; for Biodistribution HT-1080.hFAP: FAP-positive tumor
Description: The tumors were allowed to grow to an average volume of 100-200 mm3.
Biodistribution Studies: The xenografted mice were randomized (n=5 per group) and injected intravenously via the tail vein with the ^61Cu-labeled radioligands (100 μL, […], 0.8-1MBq). Mice were euthanized 1h and 4h pi. by CO2 asphyxiation. Organs of interest and blood were collected, rinsed of excess blood, blotted dry, weighed, and counted in a […]. The samples were counted against a suitably diluted aliquot of the injected solution as the standard and the results are expressed as the percentage of the injected activity per gram of tissue (0% I.A./g)+SD.

[2] = Lipophilicity, log D by shake-flask method (1-octanol/PBS pH 7.4); format: physicochemical; conditions: shake-flask, Table 17, mean ± SD
Description: The radiotracer (1 μM) was added to a 50:50 pre-saturated mixture of 1-octanol and phosphate buffered saline (PBSpH 7.4). The solution was vortexed for 30 min and then centrifuged at 3,000 rpm to achieve a phase separation. Aliquots from each phase were collected and measured in a gamma-counter. The distribution coefficient was calculated as the average of the logarithmic values of the ratio between the radioactivity in the organic and the PBS phase.
Table 17. Lipophilicity expressed as the log distribution coefficient D (log D(Octanol/PBS pH7.4)) of ^61Cu-radiotracers versus ^68Ga-radiotracers (reference radiotracers).
In a pre-lubricated Eppendorf tube, a pre-saturated mixture of 500 μL of 1-octanol and 500 μL of PBS pH 7.4 (phosphate-buffered saline) were added. An aliquot of […] in 10 μL of the radioligand was added to this mixture, shaken for 30 min, and then centrifuged at 3000 rcf for 10 min to achieve phase separation. Aliquots of 100 μL were removed from the 1-octanol and from the PBS phases, and the activity was measured in a […]. The partition coefficient was calculated as the average log ratio value of the radioactivity in the organic fraction and PBS fraction.

LNCaP xenografts = assay: Quantitative biodistribution in LNCaP xenografted mice; format: in vivo; conditions: LNCap xenograft mice, 1 h after injection
[3] = 1 h p.i., HT-1080.hFAP and HT-1080.wt xenografts
[4] = 4 h p.i., HT-1080.hFAP and HT-1080.wt xenografts

Sequence of hFAP (Q12884 whole entry): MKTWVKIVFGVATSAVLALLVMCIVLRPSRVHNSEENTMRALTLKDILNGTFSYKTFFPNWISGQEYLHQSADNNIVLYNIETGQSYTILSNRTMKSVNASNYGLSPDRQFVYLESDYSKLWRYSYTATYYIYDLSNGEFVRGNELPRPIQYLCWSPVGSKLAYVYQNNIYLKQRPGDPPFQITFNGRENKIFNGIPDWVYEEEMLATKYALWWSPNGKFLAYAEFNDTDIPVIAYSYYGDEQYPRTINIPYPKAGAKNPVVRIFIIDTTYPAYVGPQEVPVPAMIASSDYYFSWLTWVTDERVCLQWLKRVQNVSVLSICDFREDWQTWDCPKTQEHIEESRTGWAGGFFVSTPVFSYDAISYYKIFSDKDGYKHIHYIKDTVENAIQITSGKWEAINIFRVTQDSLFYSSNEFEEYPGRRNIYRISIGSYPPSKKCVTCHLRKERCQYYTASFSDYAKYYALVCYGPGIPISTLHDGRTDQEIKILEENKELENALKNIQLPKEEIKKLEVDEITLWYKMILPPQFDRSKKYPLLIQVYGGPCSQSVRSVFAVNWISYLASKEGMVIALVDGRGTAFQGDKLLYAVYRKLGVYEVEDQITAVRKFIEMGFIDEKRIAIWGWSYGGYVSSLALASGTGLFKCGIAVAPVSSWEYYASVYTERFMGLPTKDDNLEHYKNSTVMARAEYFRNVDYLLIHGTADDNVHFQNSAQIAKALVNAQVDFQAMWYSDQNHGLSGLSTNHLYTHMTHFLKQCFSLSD

CN(C(=O)CCC(=O)N1CCN(C(=O)CC[C@H](C(=O)O)N2CCN3CCN(CC2)CC(=O)[O][Cu][O]C(=O)C3)CC1)c1ccc2nccc(C(=O)NCC(=O)N3CC(F)(F)C[C@H]3C#N)c2c1 [[^61Cu]Cu-NODAGA-F4]
Kd (hFAP): 3 to 3.9 nM

CN(C(=O)CCC(=O)NCCNC(=O)CC[C@H](C(=O)O)N1CCN2CCN(CC1)CC(=O)[O][61Cu][O]C(=O)C2)c1ccc2nccc(C(=O)NCC(=O)N3CC(F)(F)C[C@H]3C#N)c2c1 [[^61Cu]Cu-NODAGA-F2]
Biodistribution Heart ([1]; 1 hour p.i.): 0.6 ± 0.1 % I.A./g
Biodistribution Intestine ([1]; 1 hour p.i.): 0.5 ± 0.1 % I.A./g
Biodistribution Liver ([1]; 1 hour p.i.): 0.6 ± 0.1 % I.A./g
Biodistribution Lung ([1]; 1 hour p.i.): 0.8 ± 0.1 % I.A./g
Biodistribution Muscle ([1]; 1 hour p.i.): 0.9 ± 0.1 % I.A./g
Biodistribution Spleen ([1]; 1 hour p.i.): 0.4 ± 0.1 % I.A./g
Biodistribution Stomach ([1]; 1 hour p.i.): 0.6 ± 0.1 % I.A./g
Biodistribution Adrenal [1, 3]: 1.5 ± 0.3 % IA/g
Biodistribution Blood [1, 3]: 1.2 ± 0.1 % IA/g
Biodistribution Femur [1, 3]: 2.4 ± 0.3 % IA/g
Biodistribution HT1080.hFAP (FAP-positive tumor) [1, 3]: 3.5 ± 1.0 % IA/g
Biodistribution HT1080.wt (FAP-negative tumor) [1, 3]: 1.4 ± 0.2 % IA/g
Biodistribution Heart [1, 3]: 0.6 ± 0.1 % IA/g
Biodistribution Intestine [1, 3]: 0.5 ± 0.1 % IA/g
Biodistribution Kidney [1, 3]: 1.1 ± 0.1 % IA/g
Biodistribution Liver [1, 3]: 0.6 ± 0.1 % IA/g
Biodistribution Lung [1, 3]: 0.8 ± 0.1 % IA/g
Biodistribution Muscle [1, 3]: 0.9 ± 0.1 % IA/g
Biodistribution Pancreas [1, 3]: 1.1 ± 0.2 % IA/g
Biodistribution Spleen [1, 3]: 0.4 ± 0.1 % IA/g
Biodistribution Stomach [1, 3]: 0.6 ± 0.1 % IA/g
Biodistribution Adrenal ([1]; 4 hours p.i.): 0.3 ± 0.1 % I.A./g
Biodistribution Blood ([1]; 4 hours p.i.): 0.5 ± 0.1 % I.A./g
Biodistribution Heart ([1]; 4 hours p.i.): 0.3 ± 0.0 % I.A./g
Biodistribution Intestine ([1]; 4 hours p.i.): 0.3 ± 0.1 % I.A./g
Biodistribution Kidneys ([1]; 4 hours p.i.): 1.0 ± 0.1 % I.A./g
Biodistribution Liver ([1]; 4 hours p.i.): 0.6 ± 0.1 % I.A./g
Biodistribution Lung ([1]; 4 hours p.i.): 0.4 ± 0.0 % I.A./g
Biodistribution Muscle ([1]; 4 hours p.i.): 0.4 ± 0.1 % I.A./g
Biodistribution Pancreas ([1]; 4 hours p.i.): 0.5 ± 0.0 % I.A./g
Biodistribution Spleen ([1]; 4 hours p.i.): 0.2 ± 0.0 % I.A./g
Biodistribution Stomach ([1]; 4 hours p.i.): 0.3 ± 0.1 % I.A./g
Biodistribution Adrenal [1, 4]: 0.3 ± 0.1 % IA/g
Biodistribution Blood [1, 4]: 0.5 ± 0.1 % IA/g
Biodistribution Femur [1, 4]: 1.6 ± 0.3 % IA/g
Biodistribution HT1080.hFAP (FAP-positive tumor) [1, 4]: 4.0 ± 0.6 % IA/g
Biodistribution HT1080.wt (FAP-negative tumor) [1, 4]: 0.9 ± 0.1 % IA/g
Biodistribution Heart [1, 4]: 0.3 ± 0.0 % IA/g
Biodistribution Intestine [1, 4]: 0.3 ± 0.1 % IA/g
Biodistribution Kidney [1, 4]: 1.0 ± 0.1 % IA/g
Biodistribution Liver [1, 4]: 0.6 ± 0.1 % IA/g
Biodistribution Lung [1, 4]: 0.4 ± 0.0 % IA/g
Biodistribution Muscle [1, 4]: 0.4 ± 0.1 % IA/g
Biodistribution Pancreas [1, 4]: 0.5 ± 0.0 % IA/g
Biodistribution Spleen [1, 4]: 0.2 ± 0.0 % IA/g
Biodistribution Stomach [1, 4]: 0.3 ± 0.1 % IA/g
Biodistribution HT-1080.wt ([1]; 1 hour p.i.): 1.4 ± 0.2 % I.A./g
Biodistribution HT-1080.wt ([1]; 4 hours p.i.): 0.9 ± 0.1 % I.A./g
Biodistribution HT-1080.hFAP ([1]; 1 hour p.i.): 3.5 ± 1.0 % I.A./g
Biodistribution HT-1080.hFAP ([1]; 4 hours p.i.): 4.0 ± 0.6 % I.A./g
accumulation in tumor and target-positive tissues ([1]; HT-1080.hFAP and HT-1080.wt xenografts): high accumulation in FAP-positive (HT-1080.hFAP) tumor and murine-FAP-positive tissues
Bmax (hFAP): 7.7-8.4

O=C([O-])CN(CCN(CC(=O)[O-])Cc1cc(CCC(=O)NCCCCCC(=O)NCCCC[C@H](NC(=O)N[C@@H](CCC(=O)O)C(=O)O)C(=O)O)ccc1[O-])Cc1cc(CCC(=O)O)ccc1[O-].[68Ga+3].[OH3+] [[^68Ga]Ga-PSMA-11]
log D(O/PBS pH 7.4) [2]: −3.89 ± 0.19
Biodistribution Adrenal (LNCaP xenografts): 19.2 ± 5.35 % IA/g
Biodistribution Blood (LNCaP xenografts): 0.25 ± 0.07 % IA/g
Biodistribution Bone (LNCaP xenografts): 3.69 ± 1.86 % IA/g
Biodistribution Heart (LNCaP xenografts): 0.32 ± 0.10 % IA/g
Biodistribution Intestine (LNCaP xenografts): 1.52 ± 0.60 % IA/g
Biodistribution Kidney (LNCaP xenografts): 159 ± 31 % IA/g
Biodistribution LNCaP-tumor (LNCaP xenografts): 10.2 ± 1.53 % IA/g
Biodistribution Liver (LNCaP xenografts): 0.54 ± 0.27 % IA/g
Biodistribution Lung (LNCaP xenografts): 1.43 ± 0.43 % IA/g
Biodistribution Muscle (LNCaP xenografts): 0.90 ± 0.36 % IA/g
Biodistribution Pancreas (LNCaP xenografts): 0.70 ± 0.12 % IA/g
Biodistribution Salivary gland (LNCaP xenografts): 1.56 ± 0.31 % IA/g
Biodistribution Spleen (LNCaP xenografts): 6.38 ± 1.37 % IA/g
Biodistribution Stomach (LNCaP xenografts): 0.69 ± 0.11 % IA/g
Ratio Tumor/Blood (LNCaP xenografts): 45.3 ± 19.7
Ratio Tumor/Kidney (LNCaP xenografts): 0.07 ± 0.02
Ratio Tumor/Liver (LNCaP xenografts): 23.5 ± 12.5
Ratio Tumor/Muscles (LNCaP xenografts): 13.6 ± 8.3
